Measurements: the NIST ThermoML archive (doi:10.1021/je030167i)
Numbers after ± are expanded uncertainties.

Key:
[1] = 101.3 kPa, Liquid
[2] = xn = mol fraction of the nth substance listed; conditions: 101.3 kPa, Liquid

CC(C)CO [2-methyl-1-propanol]
[1]
Conditions	kinematic viscosity [m2/s]	mass density [kg/m3]
298.15 K	4.25e-06 ± 1.2e-07	797.71 ± 0.35
313.15 K	2.74e-06 ± 8.2e-08	785.89 ± 0.36

CCCCO [butan-1-ol]
[1]
Conditions	kinematic viscosity [m2/s]	mass density [kg/m3]
298.15 K	3.19e-06 ± 9.3e-08	805.56 ± 0.29
313.15 K	2.22e-06 ± 6.7e-08	794.19 ± 0.3

CCC(C)O (configuration not stated) [butan-2-ol]
[1]
Conditions	kinematic viscosity [m2/s]	mass density [kg/m3]
298.15 K	3.73e-06 ± 1.1e-07	802.25 ± 0.49
313.15 K	2.24e-06 ± 7e-08	789.44 ± 0.5

CC1CCCO1 (configuration not stated) [2-methyltetrahydrofuran] + CCCCCl
[2]
Conditions	kinematic viscosity, 298.15 K [m2/s]	kinematic viscosity, 313.15 K [m2/s]	mass density, 298.15 K [kg/m3]	mass density, 313.15 K [kg/m3]
x2 = 0	5.59e-07 ± 2e-08	4.92e-07 ± 1.8e-08	849.28 ± 0.49	834.01 ± 0.49
x2 = 0.0494	5.56e-07 ± 2e-08	4.88e-07 ± 1.8e-08	850.97 ± 0.48	835.48 ± 0.48
x2 = 0.1008	5.52e-07 ± 2e-08	4.85e-07 ± 1.8e-08	852.97 ± 0.47	837.19 ± 0.47
x2 = 0.203	5.43e-07 ± 1.9e-08	4.78e-07 ± 1.8e-08	856.41 ± 0.45	840.52 ± 0.45
x2 = 0.3004	5.35e-07 ± 1.9e-08	4.71e-07 ± 1.7e-08	859.76 ± 0.43	843.74 ± 0.44
x2 = 0.3963	5.27e-07 ± 1.9e-08	4.64e-07 ± 1.7e-08	862.73 ± 0.41	846.73 ± 0.42
x2 = 0.4969	5.18e-07 ± 1.9e-08	4.56e-07 ± 1.7e-08	865.86 ± 0.4	849.69 ± 0.4
x2 = 0.5976	5.09e-07 ± 1.8e-08	4.49e-07 ± 1.7e-08	869.09 ± 0.38	852.75 ± 0.38
x2 = 0.6993	5.01e-07 ± 1.8e-08	4.41e-07 ± 1.6e-08	872.11 ± 0.36	855.69 ± 0.36
x2 = 0.7993	4.93e-07 ± 1.8e-08	4.34e-07 ± 1.6e-08	874.9 ± 0.34	858.36 ± 0.35
x2 = 0.8988	4.85e-07 ± 1.8e-08	4.27e-07 ± 1.6e-08	878.01 ± 0.32	861.05 ± 0.33
x2 = 0.9483	4.82e-07 ± 1.8e-08	4.24e-07 ± 1.6e-08	879.23 ± 0.31	862.56 ± 0.32

CC(C)CCl [1-chloro-2-methylpropane]
[1]
Conditions	kinematic viscosity [m2/s]	mass density [kg/m3]
298.15 K	4.92e-07 ± 1.8e-08	870.93 ± 0.49
313.15 K	4.29e-07 ± 1.6e-08	853.51 ± 0.49

CC1CCCO1 (configuration not stated) [2-methyltetrahydrofuran] + CC(C)(C)O
[2]
Conditions	kinematic viscosity, 298.15 K [m2/s]	kinematic viscosity, 313.15 K [m2/s]	mass density, 298.15 K [kg/m3]	mass density, 313.15 K [kg/m3]
x2 = 0	5.59e-07 ± 2e-08	4.92e-07 ± 1.8e-08	849.28 ± 0.49	834.01 ± 0.49
x2 = 0.038	5.81e-07 ± 2e-08	5.04e-07 ± 1.8e-08	846.42 ± 0.48	831.02 ± 0.48
x2 = 0.0906	6.07e-07 ± 2.1e-08	5.27e-07 ± 1.9e-08	842.39 ± 0.47	826.98 ± 0.48
x2 = 0.191	6.72e-07 ± 2.3e-08	5.73e-07 ± 2e-08	835.27 ± 0.46	819.77 ± 0.46
x2 = 0.3192	7.79e-07 ± 2.6e-08	6.49e-07 ± 2.2e-08	826.46 ± 0.44	811.22 ± 0.44
x2 = 0.3935	8.66e-07 ± 2.8e-08	7.06e-07 ± 2.4e-08	821.4 ± 0.43	806.46 ± 0.43
x2 = 0.4981	1.03e-06 ± 3.3e-08	8.15e-07 ± 2.7e-08	814.49 ± 0.41	799.58 ± 0.42
x2 = 0.5918	1.25e-06 ± 3.9e-08	9.49e-07 ± 3.1e-08	808.4 ± 0.4	793.51 ± 0.41
x2 = 0.6972	1.67e-06 ± 5.1e-08	1.17e-06 ± 3.7e-08	801.38 ± 0.39	786.72 ± 0.4
x2 = 0.7952	2.2e-06 ± 6.6e-08	1.47e-06 ± 4.6e-08	795.17 ± 0.38	780.27 ± 0.39
x2 = 0.8989	3.34e-06 ± 9.8e-08	1.97e-06 ± 6.1e-08	788.08 ± 0.37	773.14 ± 0.38
x2 = 0.9532	4.37e-06 ± 1.3e-07	2.35e-06 ± 7.4e-08	784.19 ± 0.37	769.08 ± 0.38

CC1CCCO1 (configuration not stated) [2-methyltetrahydrofuran] + CC(C)CCl
[2], x2 = 0
Conditions	kinematic viscosity [m2/s]	mass density [kg/m3]
298.15 K	5.59e-07 ± 2e-08	849.28 ± 0.49
313.15 K	4.92e-07 ± 1.8e-08	834.01 ± 0.49

CC1CCCO1 (configuration not stated) [2-methyltetrahydrofuran] + CCC(C)O
[2]
Conditions	kinematic viscosity, 298.15 K [m2/s]	kinematic viscosity, 313.15 K [m2/s]	mass density, 298.15 K [kg/m3]	mass density, 313.15 K [kg/m3]
x2 = 0	5.59e-07 ± 2e-08	4.92e-07 ± 1.8e-08	849.28 ± 0.49	834.01 ± 0.49
x2 = 0.0437	5.66e-07 ± 2e-08	4.91e-07 ± 1.8e-08	847.1 ± 0.49	831.74 ± 0.49
x2 = 0.0915	6.07e-07 ± 2.1e-08	5.06e-07 ± 1.8e-08	844.81 ± 0.49	829.48 ± 0.49
x2 = 0.1968	6.45e-07 ± 2.2e-08	5.54e-07 ± 2e-08	839.74 ± 0.49	824.64 ± 0.49
x2 = 0.3024	7.16e-07 ± 2.4e-08	6.04e-07 ± 2.1e-08	834.82 ± 0.49	820.02 ± 0.49
x2 = 0.3993	8.06e-07 ± 2.7e-08	6.7e-07 ± 2.3e-08	830.17 ± 0.49	815.81 ± 0.49
x2 = 0.5051	9.5e-07 ± 3.1e-08	7.71e-07 ± 2.6e-08	825.31 ± 0.49	811.2 ± 0.49
x2 = 0.6018	1.11e-06 ± 3.6e-08	8.78e-07 ± 2.9e-08	820.77 ± 0.49	806.88 ± 0.49
x2 = 0.6999	1.39e-06 ± 4.4e-08	1.05e-06 ± 3.4e-08	816.27 ± 0.49	802.66 ± 0.49
x2 = 0.8077	1.86e-06 ± 5.7e-08	1.34e-06 ± 4.2e-08	811.31 ± 0.49	797.97 ± 0.49
x2 = 0.8708	2.26e-06 ± 6.8e-08	1.57e-06 ± 4.9e-08	808.35 ± 0.49	795.28 ± 0.5
x2 = 0.9361	2.9e-06 ± 8.6e-08	1.86e-06 ± 5.8e-08	805.28 ± 0.49	792.38 ± 0.5

CCC(C)Cl (configuration not stated) [2-chlorobutane] + CC1CCCO1
[2]
Conditions	kinematic viscosity, 298.15 K [m2/s]	kinematic viscosity, 313.15 K [m2/s]	mass density, 298.15 K [kg/m3]	mass density, 313.15 K [kg/m3]
x1 = 0.035	5.55e-07 ± 2e-08	4.88e-07 ± 1.8e-08	850.14 ± 0.49	834.84 ± 0.49
x1 = 0.0835	5.49e-07 ± 1.9e-08	4.83e-07 ± 1.8e-08	851.29 ± 0.49	835.54 ± 0.49
x1 = 0.1742	5.38e-07 ± 1.9e-08	4.74e-07 ± 1.7e-08	853.4 ± 0.49	837.42 ± 0.49
x1 = 0.2553	5.29e-07 ± 1.9e-08	4.65e-07 ± 1.7e-08	854.9 ± 0.49	839.1 ± 0.49
x1 = 0.3568	5.17e-07 ± 1.9e-08	4.56e-07 ± 1.7e-08	857.12 ± 0.49	840.87 ± 0.49
x1 = 0.4555	5.05e-07 ± 1.8e-08	4.46e-07 ± 1.7e-08	858.75 ± 0.49	842.26 ± 0.49
x1 = 0.5396	4.96e-07 ± 1.8e-08	4.38e-07 ± 1.6e-08	860.37 ± 0.49	843.91 ± 0.49
x1 = 0.697	4.81e-07 ± 1.8e-08	4.24e-07 ± 1.6e-08	863.09 ± 0.49	846.32 ± 0.49
x1 = 0.797	4.71e-07 ± 1.7e-08	4.15e-07 ± 1.6e-08	864.45 ± 0.49	847.77 ± 0.49
x1 = 0.8975	4.63e-07 ± 1.7e-08	4.06e-07 ± 1.5e-08	866.03 ± 0.49	848.87 ± 0.49
x1 = 0.9487	4.58e-07 ± 1.7e-08	4.01e-07 ± 1.5e-08	866.65 ± 0.49	849.41 ± 0.49
x1 = 1	4.54e-07 ± 1.7e-08	3.97e-07 ± 1.5e-08	867.31 ± 0.49	850.23 ± 0.49
